Laboratory results as given in ChEMBL document CHEMBL1127186, “Probing a catalytic antibody active site using spin-labelled haptens” (Bioorg Med Chem Lett, 1993).

Legend:
[1] = Kinetic parameter of antibody 48G7 in 10 mM Tris HCl, 50 mM NaCl, pH 8.27
[2] = Compound was evaluated for the inhibition of antibody (Antibody 48G7) catalyzed reaction
[3] = Dissociation constant from ESR titration experiments; assay type: physicochemical

Row | Km [1] [µM] | k cat [1] [s⁻¹] | Compound | Ki [2] [µM] | Kd [3] [µM]
1 | 430 | 0.123 | COC(=O)Oc1ccc([N+](=O)[O-])cc1 | – | –
2 | 360 | 0.437 | COC(=O)CCCOC(=O)Oc1ccc([N+](=O)[O-])cc1 | – | –
3 | 300 | 0.367 | COC(=O)CCCC(=O)Oc1ccc([N+](=O)[O-])cc1 | – | –
4 | – | 0.0633 | CC(=O)Oc1ccc([N+](=O)[O-])cc1 | – | –

The next lines start with the compound.

Row | Compound | Km [1] [µM] | k cat [1] [s⁻¹] | Ki [2] [µM] | Kd [3] [µM]
5 | Cc1cccc(P(=O)(O)O)c1[N+](=O)[O-] [METHYLNITROPHENYLPHOSPHONATE] | – | – | 0.56 | –
6 | CC1(C)CC(OP(=O)(O)Oc2ccc([N+](=O)[O-])cc2)C(C)(C)N1[O] (stereo not given) | – | – | – | 6.4
7 | CC1(C)CC(OP(=O)(O)Oc2ccc([N+](=O)[O-])cc2)CC(C)(C)N1[O] | – | – | – | 4.3
